Measurements: patent US20240025903A1, “Bicyclic Compounds and Uses Thereof for the Treatment of Diseases” (Athira Pharma, Inc., priority 2020, published 2024)
Where two headings read alike, the source gives them in different places.

How the values were obtained:
In vivo pharmacokinetics = test: In vivo pharmacokinetics; set-up: species or system Sprague-Dawley rats; conditions: both sexes, Sprague-Dawley, rat; for Tmax: plasma; for AUC: dose-corrected plasma AUC; for Cmax: dose-corrected plasma Cmax
Description: Administration of exemplary compounds by selected routes followed by blood collection and compound quantification in plasma was used to determine the pharmacokinetic (PK) profile of the compounds. Compounds were administered to mixed-sex Sprague-Dawley rats of at least 250 grams by dissolving the test compound in DMSO and then diluting the compound into an appropriate vehicle, either saline or saline and poly-ethylene glycol. Dosing was accomplished by either tail vein puncture (IV) or oral gavage (PO), and animals were administered compound according to their weight at 1 mL/kg. At selected intervals following administration (10, 20, 40, 60, 120, and 360 minutes), blood was collected by tail vein blood draw. Whole blood was then processed by centrifugation to produce plasma. Compound content in plasma samples was quantified by LC-MS/MS and compared to an internal standard and standard curves to determine concentration accurately. Plasma concentrations were then averaged for each time point and plotted as a function of time. Area under the curve was calculated by integration of the curve, Cmax was the highest concentration achieved in plasma, and Tmax was determined by the timing of Cmax.

HepG2 cells = test: Cytotoxicity assay (LDH release); format: cell-based; conditions: 48 hours, 0.1 to 100 μM
Description: This experiment was designed to obtain a preliminary assessment of cytotoxicity.
HepG2 cells were plated in 96-well cell culture plates and allowed to attach overnight at 37° C., 5% CO2 in EMEM+10% FBS. Treatments were made in complete media (EMEM+10% FBS) and included a dilution series of test compounds from 0.1 to 100 μM. Known cytotoxin cerivastatin was used as a positive assay control and prepared at a final concentration of 0.5 μM.
Growth media was replaced with treatment media (EMEM+10% FBS containing test compound dissolved in DMSO) and cells were incubated with test compounds for 48 hours. At the end of the incubation period, supernatant media from each well was transferred to a new plate and LDH assay working solution was added. LDH assay solution undergoes a colorimetric reaction in proportion to the amount of lactate dehydrogenase (an intracellular protein that was only found in the media in the presence of lysed cells) in the media. Color reaction was quantified by measurement of absorbance at a wavelength of 490 nm.
The signal range of the assay was determined by no manipulation in a negative control treatment and full lysis of all cells in a lysis control sample. Compounds that increase the level of cytotoxicity more than 20% above negative control samples were considered cytotoxic in this assay.

[1] = Non-specific protein binding (rapid equilibrium dialysis); format: in vitro ADME, Sprague-Dawley rats; conditions: both sexes, Sprague-Dawley, RED device, 4-hour incubation at 37° C.
Description: Plasma and tissue exposures of exemplary compounds were scaled by their non-specific affinity for protein binding in target tissues or fluids to determine the fraction of compound available for interaction with the target. Non-specific binding was determined in blood plasma and brain homogenate collected from mixed-sex Sprague-Dawley rats.
Known concentrations of test compounds were mixed with plasma or brain homogenate and incubated in the donor chamber of a rapid equilibrium dialysis (RED) device with empty PBS buffer in the receiving chamber. After a 4-hour incubation at 37° C. in an orbital shaking incubator, compound in each chamber was quantified by LC-MS/MS. The unbound fraction (fu,tissue) was calculated using the following formula:
[formula] • where: • fu,tissue is the unbound fraction in the tissue; • fu,homogenate is the ratio of concentration in the buffer chamber to concentration in the sample chamber; and • D is the dilution factor used to produce the sample.

[2] = In vivo tissue distribution; set-up: species or system Sprague-dawley rats; conditions: rat
Description: The rate of distribution to target tissues is an important feature of therapeutic molecules. Tissue distribution of exemplary compounds was performed in mixed-sex Sprague-dawley rats. Test compounds were delivered via tail vein injection (IV) and tissues were collected at Tmax (10 minutes post administration). Animals were deeply anesthetized with isoflurane and whole blood was collected from the right atrium and processed by centrifugation to produce plasma. Animals were then fully perfused with PBS administered to the left ventricle to prevent blood contamination of tissues.
Tissues were collected and homogenized, and compound content in the target tissue was quantified by LC-MS/MS. Tissue distribution rates were determined by dividing the tissue concentration of compound by the plasma concentration and multiplying by 100.

HGF/MET system = target: T1, HGF/MET system (Homo sapiens, UniProt P08581+P14210); test: Phospho-MET ELISA; format: cell-based; conditions: HEK293 cells, 1 ng/mL recombinant HGF, 15 minutes, pMET ELISA
T1 construct: HEK293 cells were prepared by passage into 6-well multi-plates; endogenous in cells; host or cells: HEK293
T1 sequence (P08581 308-1390 limits assumed): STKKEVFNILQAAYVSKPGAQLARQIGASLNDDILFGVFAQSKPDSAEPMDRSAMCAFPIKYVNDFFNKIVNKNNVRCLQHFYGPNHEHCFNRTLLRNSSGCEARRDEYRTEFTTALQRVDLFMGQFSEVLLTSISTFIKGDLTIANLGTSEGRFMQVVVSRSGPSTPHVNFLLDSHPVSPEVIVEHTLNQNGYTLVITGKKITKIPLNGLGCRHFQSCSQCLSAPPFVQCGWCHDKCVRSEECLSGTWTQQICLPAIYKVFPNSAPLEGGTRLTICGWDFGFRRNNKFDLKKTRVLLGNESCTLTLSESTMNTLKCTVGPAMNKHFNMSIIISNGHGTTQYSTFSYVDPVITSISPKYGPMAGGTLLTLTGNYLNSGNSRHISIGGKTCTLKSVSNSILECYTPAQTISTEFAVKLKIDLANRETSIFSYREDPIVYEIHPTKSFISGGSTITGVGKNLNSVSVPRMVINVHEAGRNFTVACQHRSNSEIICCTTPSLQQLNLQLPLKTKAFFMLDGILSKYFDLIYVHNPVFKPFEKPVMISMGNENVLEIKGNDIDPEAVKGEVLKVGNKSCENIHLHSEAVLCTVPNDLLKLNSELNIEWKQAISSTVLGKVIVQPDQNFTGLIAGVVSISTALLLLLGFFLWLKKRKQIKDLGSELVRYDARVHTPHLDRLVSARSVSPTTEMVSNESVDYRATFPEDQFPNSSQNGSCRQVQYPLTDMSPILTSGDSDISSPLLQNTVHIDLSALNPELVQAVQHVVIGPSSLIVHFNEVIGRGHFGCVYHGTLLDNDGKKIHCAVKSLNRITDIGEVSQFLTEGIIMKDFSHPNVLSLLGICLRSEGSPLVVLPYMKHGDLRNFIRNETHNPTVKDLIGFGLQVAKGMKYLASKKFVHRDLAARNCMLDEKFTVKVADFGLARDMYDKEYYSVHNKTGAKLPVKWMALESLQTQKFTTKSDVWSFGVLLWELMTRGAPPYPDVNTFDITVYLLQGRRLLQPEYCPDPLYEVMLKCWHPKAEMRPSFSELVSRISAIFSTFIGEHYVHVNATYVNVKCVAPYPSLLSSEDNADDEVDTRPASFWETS
T1 sequence (P14210 32-494 limits assumed): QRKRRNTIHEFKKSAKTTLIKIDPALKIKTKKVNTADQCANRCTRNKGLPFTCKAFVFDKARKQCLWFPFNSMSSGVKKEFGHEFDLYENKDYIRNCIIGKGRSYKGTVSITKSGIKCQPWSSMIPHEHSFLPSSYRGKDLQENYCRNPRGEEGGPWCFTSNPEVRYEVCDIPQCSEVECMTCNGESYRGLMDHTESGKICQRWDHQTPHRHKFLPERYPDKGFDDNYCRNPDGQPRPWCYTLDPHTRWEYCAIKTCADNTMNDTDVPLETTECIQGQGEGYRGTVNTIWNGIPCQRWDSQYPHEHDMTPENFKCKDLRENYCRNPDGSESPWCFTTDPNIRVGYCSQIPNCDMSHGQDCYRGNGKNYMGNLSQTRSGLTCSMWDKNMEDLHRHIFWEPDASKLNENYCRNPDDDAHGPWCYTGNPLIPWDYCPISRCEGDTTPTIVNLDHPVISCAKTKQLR
Outline: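 Serum-starved (≥8 h) HEK293 cells treated with compound plus 1 ng/mL recombinant HGF for 15 min at 37° C in triplicate, then lysed in RIPA. Equal protein (50–100 μg, BCA-normalized) run in pMET sandwich ELISA, A450 read. Responses scaled 1–10 between 1 ng/mL and 10 ng/mL HGF means, using peak efficacy.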

[3] = IV (tail vein), read-out: TMAX IV
[4] = PO (oral gavage), read-out: TMAX PO
[5] = IV (tail vein), read-out: AUC IV
[6] = IV (tail vein), read-out: CMAX IV
[7] = PO (oral gavage), read-out: AUC PO
[8] = PO (oral gavage), read-out: CMAX PO
[9] = rat blood plasma, read-out: Unbound Fraction Plasma
[10] = rat brain homogenate, read-out: Unbound Fraction Brain

Structure (SMILES)	Tmax (In vivo pharmacokinetics; [3])	Tmax (In vivo pharmacokinetics; [4])	AUC (In vivo pharmacokinetics; [5])	Cmax (In vivo pharmacokinetics; [6])	AUC (In vivo pharmacokinetics; [7])	Cmax (In vivo pharmacokinetics; [8])	Cytotoxicity (HepG2 cells)	fraction unbound at 4 h [1, 9]	fraction unbound at 4 h [1, 10]	Tissue Distribution (% Plasma exposure at 10 min post IV dose) Brain [2]	Tissue Distribution (% Plasma exposure at 10 min post IV dose) Cerebellum [2]	Tissue Distribution (% Plasma exposure at 10 min post IV dose) Cortex [2]	Tissue Distribution (% Plasma exposure at 10 min post IV dose) Hippocampus [2]	Potency (augmentation of MET phosphorylation) (HGF/MET system)	Tissue Distribution (% Plasma exposure at 10 min post IV dose) Muscle [2]	Tissue Distribution (% Plasma exposure at 10 min post IV dose) Sciatic Nerve [2]
CCC(C)CN1CC2N(C(=O)c3ccc(C(F)(F)F)cc3)CCC(=O)N2[C@@H](C)C1=O (some centres unmarked) [Compound 1a]	< 30 min	30 to 60 min	100 to 999 ng·h/mL	1000 to 3000 ng/mL	100 to 999 ng·h/mL	1 to 100 ng/mL	++++ (++++ indicates non-toxic at 100 μM)	0.5 to 0.9	0.1 to 0.5	++ (++ indicates distribution between 5 and 39%)	++ (++ indicates distribution between 5 and 39%)	++ (++ indicates distribution between 5 and 39%)	++ (++ indicates distribution between 5 and 39%)	++++ (++++ indicates maximum potency at or above 0.1 nM)		
CCC(C)CN1CC2N(C(=O)c3ccc(OC(F)F)cc3)CCC(=O)N2[C@@H](C)C1=O (some centres unmarked) [Compound 2a]	< 30 min	30 to 60 min	1000 to 3000 ng·h/mL	1000 to 3000 ng/mL	100 to 999 ng·h/mL	100 to 999 ng/mL	++++ (++++ indicates non-toxic at 100 μM)	0.5 to 0.9	0.1 to 0.5	++ (++ indicates distribution between 5 and 39%)	+ (+ indicates distribution between 0.05 and 5%)	++ (++ indicates distribution between 5 and 39%)	++ (++ indicates distribution between 5 and 39%)	++ (++ indicates maximum potency at or above 10 nM)	++++ (++++ indicates distribution above 70%)	++++ (++++ indicates distribution above 70%)
CCC(C)CN1CC2N(Cc3ccc(C(F)(F)F)cc3)CCC(=O)N2[C@@H](C)C1=O (some centres unmarked) [Compound 5a]	< 30 min	30 to 60 min	100 to 999 ng·h/mL	100 to 999 ng/mL	1 to 100 ng·h/mL	1 to 100 ng/mL	++++ (++++ indicates non-toxic at 100 μM)	< 0.1	< 0.1	++++ (++++ indicates distribution above 70%)	++++ (++++ indicates distribution above 70%)	++++ (++++ indicates distribution above 70%)	++++ (++++ indicates distribution above 70%)	+ (+ indicates maximum potency at or above 100 nM)		
CCC(C)CN1CC2N(Cc3ccc(OC(F)F)cc3)CCC(=O)N2[C@@H](C)C1=O (some centres unmarked) [Compound 6a]	< 30 min	30 to 60 min	1000 to 3000 ng·h/mL	1000 to 3000 ng/mL	1 to 100 ng·h/mL	1 to 100 ng/mL	++++ (++++ indicates non-toxic at 100 μM)	0.1 to 0.5	< 0.1	++ (++ indicates distribution between 5 and 39%)	++ (++ indicates distribution between 5 and 39%)	++ (++ indicates distribution between 5 and 39%)	++ (++ indicates distribution between 5 and 39%)	+ (+ indicates maximum potency at or above 100 nM)	++++ (++++ indicates distribution above 70%)	++++ (++++ indicates distribution above 70%)
CCC(C)CN1CC2N(C(=O)c3ccc(O)cc3)CCC(=O)N2[C@@H](C)C1=O (some centres unmarked) [Compound 8a]							++++ (++++ indicates non-toxic at 100 μM)							+ (+ indicates maximum potency at or above 100 nM)		
CC1C(=O)N(CC2CCC2)CC2N(C(=O)c3ccc(OC(F)F)cc3)CCC(=O)N12 (centres unmarked) [Compound 14]	< 30 min	> 60 min	1000 to 3000 ng·h/mL	100 to 999 ng/mL	1000 to 3000 ng·h/mL	100 to 999 ng/mL	++++ (++++ indicates non-toxic at 100 μM)	0.1 to 0.5	> 0.9	++ (++ indicates distribution between 5 and 39%)	++ (++ indicates distribution between 5 and 39%)	++ (++ indicates distribution between 5 and 39%)	++ (++ indicates distribution between 5 and 39%)			++ (++ indicates distribution between 5 and 39%)
CCCCN1CC2N(C(=O)c3ccc(OC(F)F)cc3)CCC(=O)N2C(C)C1=O (centres unmarked) [Compound 17]							++++ (++++ indicates non-toxic at 100 μM)							+++ (+++ indicates maximum potency at or above 1 nM)		
CC1C(=O)N(CCC2CCCC2)CC2N(C(=O)c3ccc(C(F)(F)F)cc3)CCC(=O)N12 (centres unmarked) [Compound 19]							++++ (++++ indicates non-toxic at 100 μM)							+++ (+++ indicates maximum potency at or above 1 nM)		
